The subject of this experiment is ChAER1. The experiment is described as follows: HPLC quantification of 4-hydroxydihydrocinnamaldehyde formation, crude enzyme. Format: biochemical, Cephalotaxus harringtonia. To be noted: 1 mM NADPH, 50 mM Tris-HCl pH 7.5, 30 °C, 1 h.

Our source for the Km values is PMC11625190 (Synthetic and Systems Biotechnology, 2024).

`O=C/C=C/c1ccc(O)cc1` [p-coumaraldehyde]: the Km was 467 µM.

What is called Km is the substrate concentration at which the rate is half of its maximum.
